Experimental data reported in publication PMC7894426, “Influence of verapamil on the pharmacokinetics of rotundic acid in rats and its potential mechanism” (Pharmaceutical Biology, 2021).

Tests used:
CYP1A2 = biological target: T1, CYP1A2 (Homo sapiens, UniProt P05177); experiment: Metabolic depletion of RA by rhCYP1A2; assay type: in vitro ADME; conditions: rhCYP1A2 25 pM, RA 2 µM, 30 min
T1 construct: purchased Research Institute for Liver Disease (Shanghai) Co., Ltd
T1 sequence (P05177 1-516): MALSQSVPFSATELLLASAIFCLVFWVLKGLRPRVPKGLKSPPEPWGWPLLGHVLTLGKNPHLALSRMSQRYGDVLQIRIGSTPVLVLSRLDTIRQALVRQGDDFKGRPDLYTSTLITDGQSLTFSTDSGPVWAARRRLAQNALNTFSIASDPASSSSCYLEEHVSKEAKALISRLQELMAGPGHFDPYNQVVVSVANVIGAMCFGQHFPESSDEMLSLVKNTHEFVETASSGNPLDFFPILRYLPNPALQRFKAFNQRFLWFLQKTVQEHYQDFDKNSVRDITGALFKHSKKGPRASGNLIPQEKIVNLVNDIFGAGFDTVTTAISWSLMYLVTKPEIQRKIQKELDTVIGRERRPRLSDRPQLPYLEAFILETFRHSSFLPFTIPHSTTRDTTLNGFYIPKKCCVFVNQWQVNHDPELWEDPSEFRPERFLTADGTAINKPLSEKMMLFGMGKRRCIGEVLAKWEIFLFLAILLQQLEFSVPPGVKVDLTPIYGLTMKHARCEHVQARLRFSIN
Description: The metabolic stability of RA was evaluated against five rhCYPs (1A2, 2C8, 2C9, 2D6 and 3A4). Incubation was taken place in 0.1 M sodium phosphate buffer (pH 7.4) containing 5 mM MgCl2, 1 mM NADPH, and 25 pM rhCYP enzyme protein at 37 °C in a total volume of 1 mL. After pre-incubated for 5 min, the reactions were started by the addition of RA methanol solution (final concentration of 2 µM). Aliquots of 50 µL incubation solution were collected from the reaction at 0, 5, 10, 20 and 30 min, and quenched with 50 µL ice-cold methanol (containing 0.5% formic acid) and 100 µL ice-cold acetonitrile containing IS (10 ng/mL). The heat-inactivated rhCYP3A4 were used as negative controls. All reactions were conducted in triplicate, followed by LC-MS/MS analysis. Results presented in percentage of drug remaining in incubation starting at 100% at time zero.

MDCKII-Mock cells = experiment: MTS cell-proliferation assay; assay type: cell-based, canine; conditions: 25 µM RA
[1] = rats, oral administration; ref Nan et al. [2016]; cited from earlier work

metabolism of RA (substrate depletion) (CYP1A2): hardly metabolized
Structure (SMILES): C[C@@H]1CC[C@]2(C(=O)O)CC[C@]3(C)C(=CC[C@@H]4[C@@]5(C)CC[C@H](O)[C@@](C)(CO)[C@@H]5CC[C@]43C)[C@@H]2[C@]1(C)O [RA, Rotundic acid]
effect on cell proliferation (MTS) (MDCKII-Mock cells): did not influence the cell proliferation | oral bioavailability [1]: 4.52%
